Entries after “also recorded” stand apart in the source; their conditions may differ.
Legend:
[1] = tested on: Imiquimod (IMQ)-induced psoriasis mouse model; test: Imiquimod (IMQ)-induced psoriasis mouse model; assay type: in vivo, BALB/c female mice; conditions: 15 mg/kg PO BID
Method: A comparative study was performed to evaluate the efficacy of the deuterated-inhibitor Example 1 to Example A in the mouse model of psoriasis. Briefly, BALB/c female mice (7-8 week age) were shaved on the dorsal skin and 62.5 mg of IMQ cream was applied daily until day 9. Simultaneously, 15 mg of IMQ cream was applied on one ear daily until day 9. Example 1 and Example A were given orally (PO) at 15 mg/kg, BID. Mice were monitored and clinical signs of psoriasis were recorded (PSI score), both on the dorsal skin (erythema, scaling & thickness) and on the IMQ-applied ear (thickness). All data is presented as mean+SEM. For comparison of more than two groups, ANOVA was used. Pearson product moment correlation was used to test for correlations. All statistical analysis was performed using GraphPad Prism™ 10.

[2] = target: T1, human SPPL2a (Homo sapiens, UniProt Q8TCT8); test: Western blot assay of TNFα-GFP cleavage in U2OS cells expressing human SPPL2a; assay type: cell-based; conditions: SPPL2a-U2OS reporter cells, 24 h
T1 construct: expressed in transfected cells; host or cells: U2OS (SPPL2a reporter cell line)
T1 sequence (Q8TCT8 26-520): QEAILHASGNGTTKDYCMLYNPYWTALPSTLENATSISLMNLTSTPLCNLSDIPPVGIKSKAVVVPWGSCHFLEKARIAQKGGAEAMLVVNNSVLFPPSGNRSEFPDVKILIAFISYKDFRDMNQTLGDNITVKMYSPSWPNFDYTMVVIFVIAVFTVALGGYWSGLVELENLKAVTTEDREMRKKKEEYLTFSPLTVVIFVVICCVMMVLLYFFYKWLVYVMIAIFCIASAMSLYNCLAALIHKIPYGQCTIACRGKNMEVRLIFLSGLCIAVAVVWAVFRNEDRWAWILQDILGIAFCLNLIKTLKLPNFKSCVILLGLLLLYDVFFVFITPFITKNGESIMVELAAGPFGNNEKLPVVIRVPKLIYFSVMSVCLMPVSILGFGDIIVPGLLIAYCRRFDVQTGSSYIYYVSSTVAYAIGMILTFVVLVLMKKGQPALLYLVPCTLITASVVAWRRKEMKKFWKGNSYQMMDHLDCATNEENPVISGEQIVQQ
Method: To confirm the cleavage of TNF-α in the U2OS cells that express human SPPL2a, a western blot assay was performed. The same cell line used for the imaging assays were used; these cells express human SPPL2a constitutively and an eGFP-labelled TNFα (aa 1-76) NTF substrate under a doxycycline promotor. In the presence of SPPL2a activity, TNFα-GFP is cleaved at the NTF, resulting in a single 54-56 kDa band (lower MW). If SPPL2a activity is inhibited, TNFα GFP processing is abrogated resulting in a higher molecular weight band (60-62 kDa; complete inhibition) and or both 54-56 kDa and 60-62 kDa bands (incomplete inhibition, smeared appearance) on the blot. Both Example 1 and Example A were added at indicated concentrations, and cells were incubated for 24 h with the inhibitors. Total cell lysated were prepared in ice cold-1X RIPA buffer containing protease inhibitor cocktail (AKR-190, Cell BioLabs). Lysates were collected and quantified for the total protein on NanoDrop using BCA kit (23227, Thermo Scientific). […] To detect cleaved and un-cleaved TNFα-GFP fragments, anti-GFP antibody (AF4240, R&D Biosystems) was used as a primary antibody and detected using anti-goat detection module (DM-006, ProteinSimple) according to the manufacturer's protocol. Data was analyzed using ProteinSimple compass software.

[3] = tested on: MRL/MpJ-Faslpr/J mice, lupus-like disease; test: Mouse model of systemic lupus (SLE); assay type: in vivo
Method: A mouse model of SLE was used to evaluate the treatment potential of SPPL2a inhibition by Example A in vivo in female mice aged 8 weeks. The MRL/MpJ-Faslpr/J (JAX stock #000485) mice used in this study develop a spontaneously accelerated and aggressive lupus-like disease characterized by immune-mediated damage to the organs, and by the presence of circulating auto-Abs against dsDNA, which are serological hallmarks of SLE. Mice were prophylactically treated orally with Example A at 15 mg/kg and 30 mg/kg dose, twice daily after allotment into different groups starting at week 10. As a control, cyclophosphamide at 25 mg/kg dose was given intraperitoneally, twice weekly. Mice were monitored weekly for the clinical sign development, proteinuria, skin lesions and lymphadenopathy. The study was terminated by euthanizing mice at 20 weeks of age following 10 weeks of dosing. All data is presented as mean+SEM. For comparison of more than two groups, ANOVA was used. All statistical analysis was performed using GraphPad Prism™10.
Inflammatory cytokine levels (TNFα and IFNγ) and murine immunoglobulin levels (Ig) were measured using MSD® multi-spot assay kits.

[4] = tested on: experimental autoimmune encephalomyelitis (EAE) mouse model; test: Experimental autoimmune encephalomyelitis (EAE) mouse model; assay type: in vivo, mice; conditions: for disease score (EAE severity score): compared to vehicle
Method: The EAE model was used to evaluate the potential of SPPL2a inhibition in an in vivo mouse model of autoimmune disease. In this study, EAE was induced in female mice, aged 7-9 weeks, using an EAE induction kit (EK-2160, Hooke Labs) containing human recombinant MOG 1 125 antigen emulsified in CFA. EAE severity score was measured on a scale of 0-6 as per the IACUC approved protocol for 20 days. Mice were treated orally with the SPPL2a inhibitor Example A at 15 mg/kg and 30 mg/kg twice daily (first dose given on the same day prior to immunization). Animals were euthanized and tissues, plasma, and serum were collected for further analysis.
Anti-mouse MOG antibodies were measured in the serum of mice using quantitative ELISA kit (AS-55156, AnaSpec). […] All data is presented as mean+SEM. For comparison of more than two groups, ANOVA was used. All statistical analysis was performed using GraphPad Prism™ 10 or higher.

[5] = both doses tested (15 and 30 mg/kg orally twice daily)
[6] = both treated groups (15 and 30 mg/kg BID)

With `CNC(=O)c1nc(C)c(C(=O)NC[C@@H](C)C(=O)N[C@@H]2C(=O)N3CCCN3Cc3ccccc32)s1` [Example A, N^2,4-dimethyl-N^5—((R)-2-methyl-3-oxo-3-(((S)-11-oxo-2,3,10,11-tetrahydro-1H,5H-benzo[d]pyrazolo[1,2-a][1,2]diazepin-10-yl)amino)propyl)thiazole-2,5-dicarboxamide] the “dorsal PSI scores” value [1] was “alleviate”, the ear thickness measurements [1] was “alleviate” and the “clinical signs of psoriasis disease” value ([1]; compared to vehicle group) was “significantly reduced”. For the same compound, the “Mouse IL-12 level in plasma” value ([1]; terminal day) was “significant reduction”, the “Mouse TNFα level in plasma” value ([1]; terminal day) was “significant reduction” and the “TNFα-GFP cleavage inhibition (SPPL2a activity inhibition)” value [2] was “SPPL2a activity inhibition; also recorded: Comparable and significant TNFα-GFP cleavage inhibition”. The “TNFα levels in mouse serum” value ([3]; 15 mg/kg BID) was “No significant changes”, the “Levels of IgA” value ([3]; 15 mg/kg dose) was “significantly down regulated” and the kidney pathology ([3]; 15 mg/kg, compared to vehicle control) was “did not exhibit a test article-related change compared to the vehicle control except in the blood vessels”. For the same compound, the “TNFα levels in mouse serum” value ([3]; 30 mg/kg BID) was “significantly inhibits”, the “antibody production in mouse serum” value ([3]; 30 mg/kg BID) was “significantly inhibits” and the “Levels of IgA” value ([3]; 30 mg/kg dose) was “trended lower”. For the same compound, the “kidney pathology: membranoproliferative nephritis, tubular dilation and casts, interstitial inflammation, fibrosis, blood vessel necrosis, and inflammation” value ([3]; 30 mg/kg oral twice daily) was “statistically significant decrease”, the “Serum IFNγ levels” value ([3]; both doses (15 and 30 mg/kg BID)) was “modest increase” and the proteinuria [3, 5] was “effectively reduced; also recorded: Significant reduction”. For the same compound, the “skin lesion formation / skin lesional scores” value [3, 5] was “effectively reduced; also recorded: Significant reduction”, the IgG1 [3, 6] was “significantly lower” and the IgG2a [3, 6] was “significantly lower”. For the same compound, the IgG2b [3, 6] was “significantly lower”, the IgG3 [3, 6] was “significantly lower” and the IgM [3, 6] was “significantly lower”. The “anti ds-DNA antibody production” value ([3]; compared to vehicle control) was “significantly reduced”, the lymphadenopathy ([3]; highest dose tested) was “significantly reduced; also recorded: Significant reduction” and the IgG2a level ([4]; 15 mg/kg) was “Trends to lower Ig titers”. The IgG2b level ([4]; 15 mg/kg) was “Trends to lower Ig titers”, the IgM level ([4]; 15 mg/kg) was “Trends to lower Ig titers” and the “disease score (EAE severity score)” value ([4]; 15 mg/kg orally twice daily) was “significant reduction”. The IgA ([4]; 30 mg/kg) was “lower total IgG1 and IgA trend”, the IgG2a titer ([4]; 30 mg/kg) was “Significant reduction” and the IgG2b titer ([4]; 30 mg/kg) was “Significant reduction”. For the same compound, the IgG3 titer ([4]; 30 mg/kg) was “Significant reduction”, the IgM titer ([4]; 30 mg/kg) was “Significant reduction” and the “total IgG1” value ([4]; 30 mg/kg) was “lower total IgG1 and IgA trend”. For the same compound, the “disease score (EAE severity score)” value ([4]; 30 mg/kg orally twice daily) was “significant reduction”, the “total Ig levels” value ([4]; EAE induced mice) was “significantly inhibited” and the “clinical signs of EAE” value ([4]; oral, twice daily, starting at day 13 of the treatment) was “significantly reduced”. The “anti-MOG antibodies in serum” value ([4]; quantitative ELISA) was “significant reduction”.
